According to patent publication US20240287138A1, “CYCLIC PEPTIDES FOR INHIBITING TNF RECEPTOR 1 ACTIVITY” (Merck Sharp & Dohme LLC, priority 2023, published 2024):
Numbered stars: 1 amine (or outer) side, 2 acyl side, 3 side chain; on linkers, the order of the positions; unused ones are H or OH. Bridge positions count the residues as written; N and C are the ends. Square brackets hold non-standard residues; d marks the D form. Peptide text beside a SMILES is read from it. Trp(βS-Me,7-OMe) = COc1cccc2c([C@H](C)[C@H](N)C(=O)O)c[nH]c12; Trp(7-CN) = N#Cc1cccc2c(C[C@H](N)C(=O)O)c[nH]c12; Trp(7-Cl) = N[C@@H](Cc1c[nH]c2c(Cl)cccc12)C(=O)O; Phe(3-CONH2) = NC(=O)c1cccc(C[C@H](N)C(=O)O)c1; Phe(4-CONH2) = NC(=O)c1ccc(C[C@H](N)C(=O)O)cc1; Phe(4-COOH) = N[C@@H](Cc1ccc(C(=O)O)cc1)C(=O)O; 4Pal(3S-Me) = C[C@@H](c1ccncc1)[C@H](N)C(=O)O; Trp(7-aza) = N[C@@H](Cc1c[nH]c2ncccc12)C(=O)O; Phe(4-CH2NH2) = NCc1ccc(C[C@H](N)C(=O)O)cc1; Ala(4-thiazolyl) = N[C@@H](Cc1cscn1)C(=O)O; dPro(trans-4-F) = O=C(O)[C@H]1C[C@H](F)CN1; Pip(5R-OH) = O=C(O)[C@@H]1CC[C@@H](O)CN1; αMeW = C[C@](N)(Cc1c[nH]c2ccccc12)C(=O)O; X1 = O=C([C@@H]1CC[C@H](N[*:1])C1)[*:2]; 4Pal = N[C@@H](Cc1ccncc1)C(=O)O; NMeE = CN[C@@H](CCC(=O)O)C(=O)O; αMeS = C[C@](N)(CO)C(=O)O; Nle = CCCC[C@H](N)C(=O)O; Sar = CNCC(=O)O

Tests used:
human TNFR2 ECD protein = biological target: T1, human TNFR2 ECD protein (Homo sapiens, UniProt P20333); assay: SPR off-target binding (selectivity) to human TNFR2 ECD
T1 construct: HRV 3C protease cleavage site (C); 6His (C, cleaved yes); made in house; host or cells: Sf21 insect cells (baculovirus), secreted
T1 sequence (P20333 23-257): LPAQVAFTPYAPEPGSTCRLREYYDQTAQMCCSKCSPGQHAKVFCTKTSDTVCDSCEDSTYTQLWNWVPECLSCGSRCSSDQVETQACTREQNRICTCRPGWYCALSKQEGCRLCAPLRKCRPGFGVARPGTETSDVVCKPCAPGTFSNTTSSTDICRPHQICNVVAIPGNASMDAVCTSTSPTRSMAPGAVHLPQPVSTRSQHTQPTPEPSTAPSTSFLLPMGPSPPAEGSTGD
Method in brief: (§1)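 Biotinylated avi-tagged human TNFR1 or TNFR2 ECD, expressed in Sf21 insect cells, captured on streptavidin SPR chip; peptide analytes run in 10 mM HEPES pH 7.4, 150 mM NaCl, 3 mM EDTA, 0.05% P20, 2% DMSO. kon and koff measured, affinity KA calculated.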

[1] = biological target: T2, human TNFR1 extracellular domain (ECD) protein (Homo sapiens, UniProt P19438); assay: SPR binding affinity to captured human TNFR1 ECD
T2 construct: HRV 3C protease cleavage site (C); 6His (C, cleaved yes); made in house; host or cells: Sf21 insect cells (baculovirus), secreted
T2 sequence (P19438 30-211): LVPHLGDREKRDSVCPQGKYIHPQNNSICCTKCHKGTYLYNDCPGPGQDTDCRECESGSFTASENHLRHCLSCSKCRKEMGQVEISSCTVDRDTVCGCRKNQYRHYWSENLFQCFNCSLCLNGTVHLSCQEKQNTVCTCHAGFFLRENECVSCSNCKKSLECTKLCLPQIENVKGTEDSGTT
Method in brief: as §1

[2] = biological target: T3, TNFα-induced NF-κB signal transduction pathway (TNFR1 signaling) in THP-1 cells (Homo sapiens, UniProt P19438); assay: THP-1 Lucia NF-κB reporter cell assay, inhibition of TNFα-induced NF-κB signaling; format: cell-based; details: THP-1 NF-κB Lucia reporter cells, 10 ng/mL TNFα, 16-18 h, secreted luciferase; read-out: THP-1 IC50
T3 sequence (P19438 30-455): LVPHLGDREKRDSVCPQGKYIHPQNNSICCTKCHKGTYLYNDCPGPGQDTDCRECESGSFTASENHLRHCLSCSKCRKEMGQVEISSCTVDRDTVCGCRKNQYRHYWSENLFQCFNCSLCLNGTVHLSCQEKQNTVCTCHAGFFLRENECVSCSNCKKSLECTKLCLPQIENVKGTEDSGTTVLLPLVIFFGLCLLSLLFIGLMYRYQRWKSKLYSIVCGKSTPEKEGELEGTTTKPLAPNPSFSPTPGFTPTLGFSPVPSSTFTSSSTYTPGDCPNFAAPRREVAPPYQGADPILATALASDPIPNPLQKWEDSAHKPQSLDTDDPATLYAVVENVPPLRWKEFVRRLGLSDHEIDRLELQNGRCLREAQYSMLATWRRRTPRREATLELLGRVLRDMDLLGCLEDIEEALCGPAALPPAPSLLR
Method in brief: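 IC50 from a 4-parameter logistic fit of secreted luciferase luminescence (QUANTI-Luc), normalised to min/max controls. Reporter THP-1 cells were exposed to peptides for 1 h at 37 °C before 10 ng/mL TNFα (final) was added overnight (16–18 h).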

Structure (SMILES)	Kd (human TNFR2 ECD protein) [nM]	Kd [1] [nM]	IC50 [2] [nM]
CCCC[C@@H]1NC(=O)CSC[C@@H](C(N)=O)NC(=O)[C@H]([C@@H](C)c2c[nH]c3c(OC)cccc23)NC(=O)CN(C)C(=O)[C@H](Cc2ccc(O)cc2)NC(=O)[C@H](Cc2ccc(C(=O)O)cc2)NC(=O)[C@](C)(CO)NC(=O)[C@H](Cc2c[nH]c3c(Cl)cccc23)NC(=O)[C@H](Cc2ccncc2)NC(=O)[C@H](CC(N)=O)NC(=O)[C@H](CCC(=O)O)N(C)C(=O)[C@H](Cc2c[nH]c3ncccc23)NC(=O)[C@H](CO)NC(=O)[C@H]([C@@H](C)c2ccncc2)NC1=O [SEQ ID NO. 180] ({CH2CO}-[Nle][4Pal(3S-Me)]S[Trp(7-aza)][NMeE]N[4Pal][Trp(7-Cl)][αMeS][Phe(4-COOH)]Y[Sar][Trp(βS-Me,7-OMe)]C-NH2; thioether N-14)	> 1000	0.05	2
CCCC[C@@H]1NC(=O)CSC[C@@H](C(N)=O)NC(=O)[C@](C)(Cc2c[nH]c3ccccc23)NC(=O)CN(C)C(=O)[C@H](Cc2ccc(O)cc2)NC(=O)[C@H](Cc2cccc(C(N)=O)c2)NC(=O)[C@](C)(CO)NC(=O)[C@H](Cc2c[nH]c3c(Cl)cccc23)NC(=O)[C@H](Cc2ccncc2)NC(=O)[C@H](CC(N)=O)NC(=O)[C@H](CCC(=O)O)N(C)C(=O)[C@H](Cc2c[nH]c3ncccc23)NC(=O)[C@H](CO)NC(=O)[C@H](Cc2ccc(CN)cc2)NC1=O [SEQ ID NO. 205] ({CH2CO}-[Nle][Phe(4-CH2NH2)]S[Trp(7-aza)][NMeE]N[4Pal][Trp(7-Cl)][αMeS][Phe(3-CONH2)]Y[Sar][αMeW]C-NH2; thioether N-14)	> 1000	0.6	7.2
CCCC[C@@H]1NC(=O)CSC[C@@H](C(N)=O)NC(=O)[C@H]([C@@H](C)c2c[nH]c3c(OC)cccc23)NC(=O)CN(C)C(=O)[C@H](Cc2ccc(O)cc2)NC(=O)[C@H](Cc2ccc(C(=O)O)cc2)NC(=O)[C@](C)(CO)NC(=O)[C@H](Cc2c[nH]c3c(Cl)cccc23)NC(=O)[C@H](Cc2ccncc2)NC(=O)[C@H](CC(N)=O)NC(=O)[C@H](CCC(=O)O)N(C)C(=O)[C@H](Cc2c[nH]c3ncccc23)NC(=O)[C@H](Cc2cscn2)NC(=O)[C@H](Cc2ccncc2)NC1=O [SEQ ID NO. 253] ({CH2CO}-[Nle][4Pal][Ala(4-thiazolyl)][Trp(7-aza)][NMeE]N[4Pal][Trp(7-Cl)][αMeS][Phe(4-COOH)]Y[Sar][Trp(βS-Me,7-OMe)]C-NH2; thioether N-14)	> 1000	1.09	4.4
CCCC[C@@H]1NC(=O)[C@@H]2CC[C@@H](C2)NC(=O)[C@H]([C@@H](C)c2c[nH]c3c(OC)cccc23)NC(=O)CN(C)C(=O)[C@H](Cc2ccc(C(N)=O)cc2)NC(=O)[C@H](Cc2ccc(C(N)=O)cc2)NC(=O)[C@](C)(CO)NC(=O)[C@H](Cc2c[nH]c3c(C#N)cccc23)NC(=O)[C@H](Cc2ccc(C(=O)O)cc2)NC(=O)[C@H](CC(N)=O)NC(=O)[C@H]2C[C@H](F)CN2C(=O)[C@H](Cc2c[nH]c3ccccc23)NC(=O)[C@@H]2CC[C@@H](O)CN2C(=O)[C@H](Cc2ccncc2)NC1=O [SEQ ID NO. 114] (cyclo([4Pal][Pip(5R-OH)]W[dPro(trans-4-F)]N[Phe(4-COOH)][Trp(7-CN)][αMeS][Phe(4-CONH2)][Phe(4-CONH2)][Sar][Trp(βS-Me,7-OMe)][X1][Nle]))	> 1000	0.02	0.9
CCCC[C@@H]1NC(=O)[C@@H]2CC[C@@H](C2)NC(=O)[C@H]([C@@H](C)c2c[nH]c3c(OC)cccc23)NC(=O)CN(C)C(=O)[C@H](Cc2ccc(C(N)=O)cc2)NC(=O)[C@H](Cc2ccc(C(N)=O)cc2)NC(=O)[C@](C)(CO)NC(=O)[C@H](Cc2c[nH]c3c(Cl)cccc23)NC(=O)[C@H](Cc2ccncc2)NC(=O)[C@H](CC(N)=O)NC(=O)[C@H](CCC(=O)O)N(C)C(=O)[C@H](Cc2c[nH]c3ccccc23)NC(=O)[C@@H]2CC[C@@H](O)CN2C(=O)[C@H](Cc2ccncc2)NC1=O [SEQ ID NO. 229] (cyclo([4Pal][Trp(7-Cl)][αMeS][Phe(4-CONH2)][Phe(4-CONH2)][Sar][Trp(βS-Me,7-OMe)][X1][Nle][4Pal][Pip(5R-OH)]W[NMeE]N))	> 1000	0.14	0.5
